This is an account of results in US20250034185A1 (priority 2021, published 2025).

The structures appear in SMILES notation.
Wherever P5P formed is given: test concentration or dose not given here.

One series deals with plasma enzymes.
Settings: not given
Take `Cc1ncc(COP(=O)(N[C@@H](C)C(=O)Oc2ccc3ccccc3c2)Oc2ccccc2)c(C=O)c1O` (stereo partly drawn) [Compound 16xiv, (2S)-Naphthalen-2-yl 2-(((4-formyl-5-hydroxy-6-methylpyridin-3-yl)methoxy)(phenoxy)phosphorylamino)propanoate]: the “stability in DMSO (stock solution)” value is on record as “unstable in DMSO”. Still for that read-out and setting: then `Cc1ncc(COP(=O)(NCC(=O)OC(C)C)Oc2ccccc2)c(C=O)c1O` (stereo not drawn) [Compound 16xv, Isopropyl 2-(((4-formyl-5-hydroxy-6-methylpyridin-3-yl)methoxy)(phenoxy)phosphorylamino)acetate], with “unstable in DMSO”.

The same series, now with this note: Sprague Dawley, rat.
With `Cc1ncc(COP(=O)(N[C@@H](C)C(=O)OC(C)C)Oc2ccc(Br)cc2F)c(C=O)c1O` (stereo partly drawn) [Compound 16xxxix, (2S)-Isopropyl 2-((4-bromo-2-fluorophenoxy)((4-formyl-5-hydroxy-6-methylpyridin-3-yl)methoxy)phosphorylamino)propanoate], the P5P formed stood at 2.3 µM and the “relative P5P formed” value stood at 92.0%.

In the case of `Cc1ncc(COP(=O)(N[C@@H](C)C(=O)OC(C)C)Oc2ccc(OC(F)(F)F)cc2)c(CN)c1O` (stereo partly drawn) [Compound 14xi, (2S)-Isopropyl 2-(((4-(aminomethyl)-5-hydroxy-6-methylpyridin-3-yl)methoxy)(4-(trifluoromethoxy)phenoxy)phosphorylamino)propanoate], the P5P formed was determined as 0.3 µM and the “relative P5P formed” value turned out to be 17.6%. For `Cc1ncc(COP(=O)(N[C@@H](C)C(=O)OC(C)C)Oc2cccc3ccccc23)c(CO)c1O` (stereo partly drawn) [Compound 15x, (2S)-Isopropyl 2-(((5-hydroxy-4-(hydroxymethyl)-6-methylpyridin-3-yl)methoxy)(naphthalen-1-yloxy)phosphorylamino)propanoate], in that order: 0 µM and 0.0%.

For the compound `Cc1ncc(COP(=O)(N[C@@H](C)C(=O)OC2CCN(C)CC2)Oc2ccccc2)c(C=O)c1O` (stereo partly drawn) [Compound 16xxxi, (2S)-1-Methylpiperidin-4-yl 2-(((4-formyl-5-hydroxy-6-methylpyridin-3-yl)methoxy)(phenoxy)phosphorylamino)propanoate], the P5P formed is 0.4 µM and the “relative P5P formed” value turned out to be 13.8%. For `Cc1ncc(COP(=O)(N[C@@H](C)C(=O)OCc2ccccc2)Oc2ccccc2)c(C=O)c1O` (stereo partly drawn) [Compound 16ix, (2S)-Benzyl 2-(((4-formyl-5-hydroxy-6-methylpyridin-3-yl)methoxy)(phenoxy)phosphorylamino)propanoate], the P5P formed was determined as 10.3 µM and the “relative P5P formed” value is on record as 98.1%.

As to `[2H]c1c([2H])c([2H])c(OP(=O)(N[C@@H](C)C(=O)OC(C)C)OCc2cnc(C)c(O)c2CO)c([2H])c1[2H]` (stereo partly drawn) [Compound 15xix], the P5P formed is 0.4 µM and the “relative P5P formed” value is listed as 7.4%.

In the case of `Cc1ccc(OP(=O)(N[C@@H](C)C(=O)OC(C)C)OCc2cnc(C)c(O)c2CN)cc1` (stereo partly drawn) [Compound 14xvi, (2S)-Isopropyl 2-(((4-(aminomethyl)-5-hydroxy-6-methylpyridin-3-yl)methoxy)(p-tolyloxy)phosphorylamino)propanoate], the P5P formed was 0.3 µM and the “relative P5P formed” value worked out at 10.3%. With `Cc1ncc(COP(=O)(N[C@@H](C)C(=O)Oc2ccc3ccccc3c2)Oc2ccccc2)c(CO)c1O` (stereo partly drawn) [Compound 15iv, (2S)-Naphthalen-2-yl 2-(((5-hydroxy-4-(hydroxymethyl)-6-methylpyridin-3-yl)methoxy)(phenoxy)phosphorylamino)propanoate], the P5P formed was 0.65 µM and the “relative P5P formed” value is 6.2%. As to `[2H]C([2H])([2H])C([2H])(OC(=O)[C@H](C)NP(=O)(OCc1cnc(C)c(O)c1C=O)Oc1ccccc1)C([2H])([2H])[2H]` (stereo partly drawn) [Compound 16xxi], the P5P formed came out at 0.3 µM and the “relative P5P formed” value is recorded as 17.6%.

Turning to `Cc1ccc(OP(=O)(N[C@@H](C)C(=O)OC(C)C)OCc2cnc(C)c(O)c2C=O)cc1` (stereo partly drawn) [Compound 16xxxvii, (2S)-Isopropyl 2-(((4-formyl-5-hydroxy-6-methylpyridin-3-yl)methoxy)(p-tolyloxy)phosphorylamino)propanoate], the P5P formed was 0.3 µM and the “relative P5P formed” value was found to be 12.0%. For `Cc1ncc(COP(=O)(N[C@@H](C)C(=O)OC(C)C)Oc2ccc(Br)cc2F)c(CN)c1O` (stereo partly drawn) [Compound 14xviii, (2S)-Isopropyl 2-(((4-(aminomethyl)-5-hydroxy-6-methylpyridin-3-yl)methoxy)(4-bromo-2-fluorophenoxy)phosphorylamino)propanoate], in that order: 2.4 µM and 96.0%. As for `CCC(CC)COC(=O)[C@H](C)NP(=O)(OCc1cnc(C)c(O)c1CO)Oc1ccccc1` (stereo partly drawn) [Compound 15xxxiv], the P5P formed was 0 µM and the “relative P5P formed” value is 0.0%. On to `Cc1ncc(COP(=O)(N[C@@H](C)C(=O)OC(C)C)Oc2ccccc2)c(CO)c1OC(=O)c1ccccc1` (stereo partly drawn) [Compound 15xvii, (2S)-Isopropyl 2-(((5-benzoyloxy-4-(hydroxymethyl)-6-methylpyridin-3-yl)methoxy)(phenoxy)phosphorylamino)propanoate], for which the P5P formed was found to be 0.3 µM and the “relative P5P formed” value amounted to 8.3%. In the case of `Cc1ncc(COP(=O)(N[C@@H](CC(C)C)C(=O)OC(C)C)Oc2ccccc2)c(CO)c1O` (stereo partly drawn) [Compound 15xiii, (2S)-Isopropyl 2-(((5-hydroxy-4-(hydroxymethyl)-6-methylpyridin-3-yl)methoxy)(phenoxy)phosphorylamino)-4-methylpentanoate], the P5P formed was 0.8 µM and the “relative P5P formed” value worked out at 15.7%. As to `Cc1ccc(OC(=O)[C@H](C)NP(=O)(OCc2cnc(C)c(O)c2CN)Oc2ccccc2)cc1` (stereo partly drawn) [Compound 14vii, (2S)-p-Tolyl 2-(((4-(aminomethyl)-5-hydroxy-6-methylpyridin-3-yl)methoxy)(phenoxy)phosphorylamino)propanoate], the P5P formed came to 0.5 µM and the “relative P5P formed” value stood at 12.2%. For `Cc1ncc(COP(=O)(N[C@H](C(=O)OC(C)C)C2CCCC2)Oc2ccccc2)c(CO)c1O` (stereo partly drawn) [Compound 15xii, (2S)-Isopropyl 2-cyclopentyl-2-(((5-hydroxy-4-(hydroxymethyl)-6-methylpyridin-3-yl)methoxy)(phenoxy)phosphorylamino)acetate], in that order: 0.2 µM and 7.4%. For `Cc1ncc(COP(=O)(NC(CC(F)(F)F)C(=O)OC(C)C)Oc2ccccc2)c(CO)c1O` (stereo not drawn) [Compound 15xiv, Isopropyl 4,4,4-trifluoro-2-(((5-hydroxy-4-(hydroxymethyl)-6-methylpyridin-3-yl)methoxy)(phenoxy)phosphorylamino)butanoate], in that order: 0.1 µM and 2.6%. Regarding `Cc1ncc(COP(=O)(N[C@@H](C)C(=O)Oc2ccc(Cl)cc2)Oc2ccccc2)c(CN)c1O` (stereo partly drawn) [Compound 14xvii, (2S)-4-Chlorophenyl 2-(((4-(aminomethyl)-5-hydroxy-6-methylpyridin-3-yl)methoxy)(phenoxy)phosphorylamino)propanoate], the P5P formed was found to be 6.6 µM and the “relative P5P formed” value is listed as 194.1%. With `Cc1ncc(COP(=O)(NCC(=O)OC(C)C)Oc2ccccc2)c(CN)c1O` (stereo not drawn) [Compound 14ii, Isopropyl 2-(((4-(aminomethyl)-5-hydroxy-6-methylpyridin-3-yl)methoxy)(phenoxy)phosphorylamino)acetate], the P5P formed amounted to 0 µM and the “relative P5P formed” value is 0.0%. The like results for `[2H]C([2H])([2H])C(OC(=O)[C@H](C)NP(=O)(OCc1cnc(C)c(O)c1CN)Oc1ccccc1)C([2H])([2H])[2H]` (stereo partly drawn) [Compound 14viii] were, in that order, 0.3 µM and 17.6%.

For the compound `Cc1ncc(COP(=O)(N[C@@H](C)C(=O)OC(C)C)Oc2cccc3ccccc23)c(CN)c1O` (stereo partly drawn) [Compound 14ix, (2S)-Isopropyl 2-(((4-(aminomethyl)-5-hydroxy-6-methylpyridin-3-yl)methoxy)(naphthalen-1-yloxy)phosphorylamino)propanoate], the P5P formed was 0.4 µM and the “relative P5P formed” value is on record as 6.3%. `COC(=O)[C@H](C)NP(=O)(OCc1cnc(C)c(O)c1CO)Oc1ccccc1` (stereo partly drawn) [Compound 15vi, (2S)-Methyl 2-(((5-hydroxy-4-(hydroxymethyl)-6-methylpyridin-3-yl)methoxy)(phenoxy)phosphorylamino)propanoate]: the P5P formed stood at 0 µM and the “relative P5P formed” value is 0.0%. As for `Cc1ncc(COP(=O)(N[C@@H](C)C(=O)OCC2CCCC2)Oc2ccccc2)c(CO)c1O` (stereo partly drawn) [Compound 15vii, (2S)-Cyclopentylmethyl 2-(((5-hydroxy-4-(hydroxymethyl)-6-methylpyridin-3-yl)methoxy)(phenoxy)phosphorylamino)propanoate], the P5P formed amounted to 0 µM and the “relative P5P formed” value was determined as 0.0%. Turning to `Cc1ncc(COP(=O)(N[C@@H](C)C(=O)OC(C)C)Oc2ccc(Cl)cc2)c(CN)c1O` (stereo partly drawn) [Compound 14v, (2S)-Isopropyl 2-(((4-(aminomethyl)-5-hydroxy-6-methylpyridin-3-yl)methoxy)(4-chlorophenoxy)phosphorylamino)propanoate], the P5P formed amounted to 0.3 µM and the “relative P5P formed” value came out at 11.1%. Turning to `Cc1ncc(COP(=O)(N[C@@H](Cc2cn(C(=O)OC(C)(C)C)c3ccccc23)C(=O)OC(C)C)Oc2ccccc2)c(C=O)c1O` (stereo partly drawn) [Compound 16xiii, Tert-butyl 3-((2S)-2-(((4-formyl-5-hydroxy-6-methylpyridin-3-yl)methoxy)(phenoxy)phosphorylamino)-3-isopropoxy-3-oxopropyl)-1H-indole-1-carboxylate], the P5P formed came out at 0.3 µM and the “relative P5P formed” value is on record as 7.9%. Regarding `Cc1ncc(COP(=O)(N[C@@H](C)C(=O)OC(C)C)Oc2ccc(Cl)c(Cl)c2)c(CO)c1O` (stereo partly drawn) [Compound 15iii, (2S)-Isopropyl 2-((3,4-dichlorophenoxy)((5-hydroxy-4-(hydroxymethyl)-6-methylpyridin-3-yl)methoxy)phosphorylamino)propanoate], the P5P formed stood at 0.4 µM and the “relative P5P formed” value came out at 7.4%.
